Assay results from US9840500B2, “Compounds as dual inhibitors of histone methyltransferases and DNA methyltransferases” (FUNDACIÓN PARA LA INVESTIGACIÓN MÉDICA APLICADA, priority 2014, dated 2017).

Key:
CEMO-1 = assay: Cell proliferation assay, CEMO-1 (ALL); assay type: cell-based, human; conditions: Homo sapiens; 48 hours of treatment; Table 3
Method: (§1) Cell proliferation was analyzed after 48 hours of in vitro treatment using the CellTiter 96 Aqueous One Solution Cell Proliferation Assay (Promega, Madison, Wis.). This is a colorimetric method for determining the number of viable cells in proliferation.
(§2) For the assay, suspension cells were cultured by triplicate at a density of 1×10^6 cells/ml in 96-well plates (100.000 cells/well, 100 μl/well), except for OCILY-3 and OCILY-10 cell lines which were cultured at a density of 0.5×10^6 cells/ml (50.000 cells/well, 100 μl/well) and for HepG2, Hep3B and PLC/PRF/5 cell ines which were cultured at a density of 3000 cells/well, 100 μl/well). Adherent cells were obtained from 80-90% confluent flasks and 100 μl of cells were seeded at a density of 5000 cells/well in 96-well plates by triplicate. Before addition of the compounds, adherent cells were allowed to attach to the bottom of the wells for 12 hours. In all cases, only the 60 inner wells were used to avoid any border effects.
(§3) After 48 hours of treatment, plates with suspension cells were centrifuged at 800 g for 10 minutes and medium was removed. The plates with adherent cells were flicked to remove medium. Then, cells were incubated with 100 ul/well of medium and 20 ul/well of CellTiter 96 Aqueous One Solution reagent. After 1-3 hours of incubation at 37° C., absorbance was measured at 490 nm in a 96-well plate reader. The background absorbance was measured in wells with only cell line medium and solution reagent. Data was calculated as a percentage of total absorbance of treated cell/absorbance of non treated cells.

human G9a enzyme = target: T1, human G9a enzyme (Homo sapiens, UniProt Q96KQ7); assay: G9a enzyme activity assay (TR-FRET); assay type: biochemical
T1 sequence (Q96KQ7 1-1210): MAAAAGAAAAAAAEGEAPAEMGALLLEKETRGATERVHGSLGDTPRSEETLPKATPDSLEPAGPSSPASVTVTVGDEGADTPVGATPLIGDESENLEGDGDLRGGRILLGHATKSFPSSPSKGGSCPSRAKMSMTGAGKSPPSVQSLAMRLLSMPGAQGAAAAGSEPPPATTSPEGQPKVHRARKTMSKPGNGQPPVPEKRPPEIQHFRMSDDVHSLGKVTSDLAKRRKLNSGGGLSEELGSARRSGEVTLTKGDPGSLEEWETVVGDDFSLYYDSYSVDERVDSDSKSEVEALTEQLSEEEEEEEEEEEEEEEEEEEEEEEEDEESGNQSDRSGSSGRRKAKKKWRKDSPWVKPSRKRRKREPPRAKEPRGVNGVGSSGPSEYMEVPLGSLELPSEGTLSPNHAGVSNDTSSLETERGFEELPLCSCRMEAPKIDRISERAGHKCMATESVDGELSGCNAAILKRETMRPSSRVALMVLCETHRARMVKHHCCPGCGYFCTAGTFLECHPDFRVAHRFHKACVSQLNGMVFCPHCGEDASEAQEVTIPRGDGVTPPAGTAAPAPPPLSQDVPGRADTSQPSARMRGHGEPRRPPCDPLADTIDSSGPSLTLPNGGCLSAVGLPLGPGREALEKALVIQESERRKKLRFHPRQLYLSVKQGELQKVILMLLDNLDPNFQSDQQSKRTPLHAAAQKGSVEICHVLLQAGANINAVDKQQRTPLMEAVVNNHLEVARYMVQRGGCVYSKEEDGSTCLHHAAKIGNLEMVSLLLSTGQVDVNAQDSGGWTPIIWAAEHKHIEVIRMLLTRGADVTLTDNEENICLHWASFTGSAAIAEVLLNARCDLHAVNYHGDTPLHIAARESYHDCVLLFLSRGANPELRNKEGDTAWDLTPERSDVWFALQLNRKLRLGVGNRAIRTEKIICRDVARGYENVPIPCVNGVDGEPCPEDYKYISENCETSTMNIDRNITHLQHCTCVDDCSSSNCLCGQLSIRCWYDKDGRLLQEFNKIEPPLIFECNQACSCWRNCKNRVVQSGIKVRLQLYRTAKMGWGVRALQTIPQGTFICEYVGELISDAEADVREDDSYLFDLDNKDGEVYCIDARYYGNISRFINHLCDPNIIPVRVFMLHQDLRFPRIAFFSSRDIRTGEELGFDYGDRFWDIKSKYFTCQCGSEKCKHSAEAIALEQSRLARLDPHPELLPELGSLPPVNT
Method: The biochemical assay to measure G9a enzyme activity relies on time-resolved fluorescence energy transfer (TR-FRET) between europium cryptate (donor) and XL665 (acceptor). […] The human G9a enzyme expressed in a baculovirus infected Sf9 cell expression system was obtained from BPS Biosciences (Cat. #51001). […] Final percentage of DMSO was 0.5%. • 2 μl of 1 nM G9a enzyme diluted in assay buffer. […] Final concentration 150 nM. • Then, add 5 μl of streptavidin XL665 beads. Final concentration of 16 μM. • Read the plate after 1 hour of incubation at room temperature.
(§4) For each well, fluorescence was measured at 620 nm and 665 nm. A ratio (665 nm/620 nm) was then calculated in order to minimize medium interferences. Positive control was obtained in the presence of the vehicle of the compounds. Negative control was obtained in the absence of G9a enzyme activity. Calculated IC50 values were determined using GraphPrism using 4-parameters inhibition curve.

HepG2 = assay: Cell proliferation assay, HepG2 (HCC); assay type: cell-based; conditions: Homo sapiens, 48 hours of treatment, Table 3
Method: as §1, §2, §3

PLC/PRF/5 = assay: Cell proliferation assay, PLC/PRF/5 (HCC); assay type: cell-based; conditions: Homo sapiens, 48 hours of treatment, Table 3
Method: as §1, §2, §3

DNMT1 = DNMT1 (Homo sapiens, UniProt P26358); assay: DNMT1 enzyme activity assay (TR-FRET, EPIgeneous methyltransferase assay); assay type: biochemical
DNMT1, sequence (P26358 whole entry): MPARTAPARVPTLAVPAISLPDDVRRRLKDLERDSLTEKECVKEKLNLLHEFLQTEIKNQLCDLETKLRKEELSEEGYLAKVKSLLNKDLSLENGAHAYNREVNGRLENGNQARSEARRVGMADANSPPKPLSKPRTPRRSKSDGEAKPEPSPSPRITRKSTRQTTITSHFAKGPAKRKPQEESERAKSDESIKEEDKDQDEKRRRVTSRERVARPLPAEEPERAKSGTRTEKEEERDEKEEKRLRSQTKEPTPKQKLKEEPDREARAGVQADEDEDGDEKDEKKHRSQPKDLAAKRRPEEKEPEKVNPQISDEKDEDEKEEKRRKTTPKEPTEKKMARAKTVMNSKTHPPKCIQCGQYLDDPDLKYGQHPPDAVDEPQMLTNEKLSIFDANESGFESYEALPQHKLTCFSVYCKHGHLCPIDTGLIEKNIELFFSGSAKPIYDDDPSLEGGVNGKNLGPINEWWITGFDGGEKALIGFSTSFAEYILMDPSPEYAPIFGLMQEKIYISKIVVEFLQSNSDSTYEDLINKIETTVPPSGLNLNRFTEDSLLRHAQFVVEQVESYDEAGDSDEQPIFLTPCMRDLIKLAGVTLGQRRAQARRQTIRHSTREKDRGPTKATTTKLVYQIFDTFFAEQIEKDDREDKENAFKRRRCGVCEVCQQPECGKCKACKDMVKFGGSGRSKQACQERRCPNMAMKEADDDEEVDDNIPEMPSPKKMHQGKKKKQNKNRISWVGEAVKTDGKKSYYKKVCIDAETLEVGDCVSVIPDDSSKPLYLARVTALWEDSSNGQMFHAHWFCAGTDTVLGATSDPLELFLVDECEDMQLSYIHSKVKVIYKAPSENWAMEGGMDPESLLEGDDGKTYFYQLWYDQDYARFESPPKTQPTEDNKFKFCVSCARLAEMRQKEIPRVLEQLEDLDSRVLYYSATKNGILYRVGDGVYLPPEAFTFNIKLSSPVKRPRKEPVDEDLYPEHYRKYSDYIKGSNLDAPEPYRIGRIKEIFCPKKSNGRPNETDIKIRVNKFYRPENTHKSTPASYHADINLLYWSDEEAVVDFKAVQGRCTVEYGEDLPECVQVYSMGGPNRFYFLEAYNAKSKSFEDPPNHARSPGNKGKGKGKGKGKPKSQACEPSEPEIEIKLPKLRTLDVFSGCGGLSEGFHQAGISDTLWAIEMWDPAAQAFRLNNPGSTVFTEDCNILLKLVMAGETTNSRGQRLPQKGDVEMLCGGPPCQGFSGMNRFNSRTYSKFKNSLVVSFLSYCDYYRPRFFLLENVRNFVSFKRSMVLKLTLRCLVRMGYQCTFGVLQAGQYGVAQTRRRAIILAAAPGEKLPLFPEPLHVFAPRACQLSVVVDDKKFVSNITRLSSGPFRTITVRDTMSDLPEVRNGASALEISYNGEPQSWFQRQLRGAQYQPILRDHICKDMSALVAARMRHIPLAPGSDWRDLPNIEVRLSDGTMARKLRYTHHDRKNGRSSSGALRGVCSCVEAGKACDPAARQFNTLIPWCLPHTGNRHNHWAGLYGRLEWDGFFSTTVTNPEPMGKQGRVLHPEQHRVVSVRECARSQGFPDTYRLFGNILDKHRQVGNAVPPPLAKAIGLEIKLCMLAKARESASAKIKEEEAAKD
Method: The biochemical assay to measure DNMT1 enzyme activity relies on time-resolved fluorescence energy transfer (TR-FRET) between lumi4-Tb (donor) and d2 (acceptor) using the EPIgeneous methyltransferase assay (CisBio Cat#62SAHPEB). […] TR-FRET signal is inversely proportional to the concentration of SAH, product of DNMT1 enzyme activity, in the sample.
The human DNMT1 was obtained from Reaction Biology Corp. (Cat# DMT-21-124). […] Final percentage of DMSO was 0.5%. • 2 μl of 1 nM DNMT1 enzyme diluted in assay buffer.
as §4

Hep3B = assay: Cell proliferation assay, Hep3B (HCC); assay type: cell-based; conditions: Homo sapiens, 48 hours of treatment, Table 3
Method: as §1, §2, §3

OCI-Ly3 = assay: Cell proliferation assay, OCI-Ly3 (ABC-DLBCL); assay type: cell-based; conditions: Homo sapiens, 48 hours of treatment, Table 3
Method: as §1, §2, §3

COc1cc2c(NC3CCCC3)cc(-c3ccc(C)o3)nc2cc1OCCCN1CCCC1 [Compound 3-05]
GI50 (CEMO-1): 100 to 1000 nM

COc1cc2c(NC3CCN(C(C)C)CC3)cc(C3CCCCC3)nc2cc1OCCCN1CCCC1 [Compound 7-05, 2-cyclohexyl-N-(1-isopropyl-4-piperidyl)-6-methoxy-7-(3-pyrrolidin-1-ylpropoxy)quinolin-4-amine; 2,2,2-trifluoroacetic acid]
IC50 (human G9a enzyme): < 100 nM
GI50 (CEMO-1): ≤ 10000 nM
GI50 (HepG2): ≤ 10000 nM
GI50 (PLC/PRF/5): ≤ 10000 nM
IC50 (DNMT1): 500 to 1000 nM
GI50 (Hep3B): ≤ 10000 nM

CCc1ccc(-c2cc(NC3CCC34CCN(C)CC4)c3cc(OC)c(OCCCN4CCCC4)cc3n2)o1 (stereo not drawn) [Compound 5-07, 2-(5-ethyl-2-furyl)-6-methoxy-N-(7-methyl-7-azaspiro[3.5]nonan-3-yl)-7-(3-pyrrolidin-1-ylpropoxy)quinolin-4-amine; 2,2,2-trifluoroacetic acid]
GI50 (HepG2): 100 to 1000 nM
GI50 (PLC/PRF/5): 100 to 1000 nM
GI50 (OCI-Ly3): < 100 nM
GI50 (Hep3B): 100 to 1000 nM

COc1cc2c(NC3CCN(C)CC3)cc(-c3ccc(C)s3)nc2cc1OCCCN1CCCC1 [Compound 3-36]
IC50 (human G9a enzyme): < 100 nM
GI50 (CEMO-1): 100 to 1000 nM
IC50 (DNMT1): 500 to 1000 nM

COc1cc2c(NC3CC4(CCN(C)CC4)C3)cc(-c3ccc(C)o3)nc2cc1OCCCN1CCCC1 [Compound 5-02]
GI50 (HepG2): 1000 to 10000 nM
GI50 (PLC/PRF/5): 1000 to 10000 nM
GI50 (OCI-Ly3): 100 to 1000 nM
GI50 (Hep3B): 1000 to 10000 nM

COc1cc2c(NC3CCN(C)CC3)cc(-c3ccc(C)o3)nc2cc1OCC1CCNCC1 [Compound 11-01, 6-methoxy-2-(5-methyl-2-furyl)-N-(1-methyl-4-piperidyl)-7-(4-piperidylmethoxy)quinolin-4-amine; 2,2,2-trifluoroacetic acid]
GI50 (HepG2): 1000 to 10000 nM
GI50 (PLC/PRF/5): 1000 to 10000 nM
GI50 (OCI-Ly3): < 100 nM
GI50 (Hep3B): 1000 to 10000 nM

COc1cc2c(NC3CC4(CCN(C)CC4)C3)cc(-c3ccc(C)o3)nc2cc1OCC1CCN(C)CC1 [Compound 12-03]
GI50 (HepG2): 100 to 1000 nM
GI50 (PLC/PRF/5): 100 to 1000 nM
GI50 (OCI-Ly3): < 100 nM
GI50 (Hep3B): 100 to 1000 nM

COc1cc2c(NC3CCN(C)CC3)cc(-c3ccc(C)[nH]3)nc2cc1OCC1CCNCC1 [Compound 11-05]
IC50 (human G9a enzyme): < 100 nM
GI50 (CEMO-1): ≤ 10000 nM
GI50 (HepG2): ≤ 10000 nM
GI50 (PLC/PRF/5): ≤ 10000 nM
IC50 (DNMT1): 100 to 500 nM
GI50 (Hep3B): ≤ 10000 nM

COc1cc2c(NCC3CCN(C)CC3)cc(-c3ccc(C)o3)nc2cc1OCC1CCNCC1 [Compound 11-02]
IC50 (human G9a enzyme): 100 to 500 nM
GI50 (CEMO-1): 1000 to 10000 nM
IC50 (DNMT1): 100 to 500 nM

COc1cc2c(NC3CCN(C)CC3)cc(-c3ccc(C)o3)nc2cc1OC1CC2(CNC2)C1 [Compound 16-01, 7-(2-azaspiro[3.3]heptan-6-yloxy)-6-methoxy-2-(5-methyl-2-furyl)-N-(1-methyl-4-piperidyl)quinolin-4-amine; 2,2,2-trifluoroacetic acid]
IC50 (human G9a enzyme): 1000 to 10000 nM
GI50 (CEMO-1): 1000 to 10000 nM
GI50 (HepG2): ≤ 10000 nM
GI50 (PLC/PRF/5): ≤ 10000 nM
IC50 (DNMT1): 100 to 500 nM
GI50 (Hep3B): ≤ 10000 nM

COc1cc2c(NCC3CCN(C)CC3)cc(-c3ccc(C)[nH]3)nc2cc1OCCCN1CCCC1 [Compound 3-39]
IC50 (human G9a enzyme): < 100 nM
GI50 (CEMO-1): 100 to 1000 nM
IC50 (DNMT1): < 100 nM

CCc1ccc(-c2cc(NC3CC4(CCNCC4)C3)c3cc(OC)c(OCCCN4CCCC4)cc3n2)o1 [Compound 4-03, N-(7-azaspiro[3.5]nonan-2-yl)-2-(5-ethyl-2-furyl)-6-methoxy-7-(3-pyrrolidin-1-ylpropoxy)quinolin-4-amine:2,2,2-trifluoroacetic acid]
IC50 (human G9a enzyme): < 100 nM
GI50 (CEMO-1): 1000 to 10000 nM
IC50 (DNMT1): < 100 nM

COc1cc2c(NC3CCN(C)C(=O)C3)cc(-c3ccc(C)o3)nc2cc1OCCCN1CCCC1 (stereo not drawn) [Compound 3-17]
GI50 (OCI-Ly3): 100 to 1000 nM

COc1cc2c(NC3CCC34CCN(C)CC4)cc(-c3ccc(C)o3)nc2cc1OCCCN1CCCC1 (stereo not drawn) [Compound 5-01, 6-methoxy-N-(7-methyl-7-azaspiro[3.5]nonan-3-yl)-2-(5-methyl-2-furyl)-7-(3-pyrrolidin-1-ylpropoxy)quinolin-4-amine; 2,2,2-trifluoroacetic acid]
GI50 (OCI-Ly3): 100 to 1000 nM

COc1cc2c(NC3CCN(C)CC3)cc(-c3cc4ccccc4o3)nc2cc1OCCCN1CCCC1 [Compound 3-25]
IC50 (human G9a enzyme): 1000 to 10000 nM
IC50 (DNMT1): 1000 to 10000 nM

COc1cc(NC2CCN(C)CC2)c2cc(OC)c(OCCCN3CCCC3)cc2n1 [Compound 2-01]
IC50 (human G9a enzyme): 100 to 500 nM
IC50 (DNMT1): 1000 to 10000 nM

COc1cc2c(NC3CC4(CCN(C)CC4)C3)cc(-c3ccc(C)[nH]3)nc2cc1OCCCN1CCCC1 [Compound 5-05, 6-methoxy-N-(7-methyl-7-azaspiro[3.5]nonan-2-yl)-2-(5-methyl-1H-pyrrol-2-yl)-7-(3-pyrrolidin-1-ylpropoxy)quinolin-4-amine; 2,2,2-trifluoroacetic acid]
IC50 (human G9a enzyme): < 100 nM
GI50 (CEMO-1): 1000 to 10000 nM
IC50 (DNMT1): 100 to 500 nM

COc1cc2c(NC3CCN(C)CC3)cc(C3CCCCC3)nc2cc1OCCCN1CCCC1 [Compound 7-01, 2-cyclohexyl-6-methoxy-N-(1-methyl-4-piperidyl)-7-(3-pyrrolidin-1-ylpropoxy)quinolin-4-amine; 2,2,2-trifluoroacetic acid]
IC50 (human G9a enzyme): < 100 nM
IC50 (DNMT1): 100 to 500 nM

COc1cc2c(NC3CCN(C)CC3)cc(-c3ccc(CN(C)C)o3)nc2cc1OCCCN1CCCC1 [Compound 8-01, 2-[5-[(dimethylamino)methyl]-2-furyl]-6-methoxy-N-(1-methyl-4-piperidyl)-7-(3-pyrrolidin-1-ylpropoxy)quinolin-4-amine; 2,2,2-trifluoroacetic acid]
IC50 (human G9a enzyme): 100 to 500 nM
IC50 (DNMT1): 1000 to 10000 nM

COc1cc2c(NC3CCN(C)C(=O)C3)cc(-c3ccc(C)[nH]3)nc2cc1OCC1CCNCC1 (stereo not drawn) [Compound 11-11]
IC50 (human G9a enzyme): 500 to 1000 nM
IC50 (DNMT1): 500 to 1000 nM

COc1cc2c(NC3CCOCC3)cc(-c3ccc(C)o3)nc2cc1OCCCN1CCCC1 [Compound 3-16]
IC50 (human G9a enzyme): 100 to 500 nM
IC50 (DNMT1): 1000 to 10000 nM

COc1cc2c(NC3CCN(C)CC3)cc(C3=CCOCC3)nc2cc1OCCCN1CCCC1 [Compound 6-02]
IC50 (human G9a enzyme): < 100 nM
IC50 (DNMT1): 500 to 1000 nM
